# Experimental data as given in patent US8691799B2, “Materials and methods for treatment of cancer and identification of anti-cancer compounds” (priority 2001, dated 2014).
# Key:
# [1] = system: SRE-dependent pRLSRE renilla luciferase reporter; assay: SRE-dependent luciferase reporter assay in v-Src/NIH 3T3 fibroblasts; assay type: cell-based, murine; conditions: 10 μM, 24-48 hr
# Text: DNA Binding and Transcription. The STAT3 reporter, pLucTKS3, driving expression of firefly luciferase has been previously described (Turkson, J. et al. Mol. Cell Biol., 1999, 19:7519-7528). The pLucTKS3 plasmid harbors seven copies of a sequence corresponding to the STAT3-specific binding site in the promoter of the human C-reactive protein gene (Zhang, D. et al. J. Biol. Chem., 1996, 271:9503-9509). The STAT3-independent plasmid, pRLSRE, contains two copies of the serum response element (SRE) from the c-fos promoter (Yamauchi, K. et al. J. Biol. Chem., 1993, 268:14597-14600), subcloned into renilla luciferase reporter, pRL-null (Promega Corporation, Madison, Wis.).
# Transfection and Generation of Stable Clones. […]
# Preparation of Cytosolic Extracts. […] Cells were resuspended in 0.4 ml of low-salt HEPES buffer (10 mM HEPES, pH 7.8, 10 mM KCl, 0.1 mM EGTA, 0.1 mM EDTA, 1 mM PMSF, and 1 mM DTT) for 15 min, lysed by the addition of 20 μl of 10% NP-40, and centrifuged (10,000×g, 30 sec, 4° C.) to obtain the cytosolic supernatant, which was used for luciferase assays (Promega Corporation) measured with a luminometer.
# EGFR = target: T1, EGFR (Homo sapiens, UniProt P00533); assay: EGF-stimulation of EGFR tyrosine phosphorylation; assay type: cell-based; conditions: MCF-10A and EGFR-overexpressing NIH 3T3 cells (data not shown)
# T1 construct: EGFR tyrosine phosphorylation in the breast cell line MCF-10A; endogenous in cells; host or cells: MCF-10A; also EGFR-overexpressing NIH 3T3
# T1 sequence (P00533 25-1210): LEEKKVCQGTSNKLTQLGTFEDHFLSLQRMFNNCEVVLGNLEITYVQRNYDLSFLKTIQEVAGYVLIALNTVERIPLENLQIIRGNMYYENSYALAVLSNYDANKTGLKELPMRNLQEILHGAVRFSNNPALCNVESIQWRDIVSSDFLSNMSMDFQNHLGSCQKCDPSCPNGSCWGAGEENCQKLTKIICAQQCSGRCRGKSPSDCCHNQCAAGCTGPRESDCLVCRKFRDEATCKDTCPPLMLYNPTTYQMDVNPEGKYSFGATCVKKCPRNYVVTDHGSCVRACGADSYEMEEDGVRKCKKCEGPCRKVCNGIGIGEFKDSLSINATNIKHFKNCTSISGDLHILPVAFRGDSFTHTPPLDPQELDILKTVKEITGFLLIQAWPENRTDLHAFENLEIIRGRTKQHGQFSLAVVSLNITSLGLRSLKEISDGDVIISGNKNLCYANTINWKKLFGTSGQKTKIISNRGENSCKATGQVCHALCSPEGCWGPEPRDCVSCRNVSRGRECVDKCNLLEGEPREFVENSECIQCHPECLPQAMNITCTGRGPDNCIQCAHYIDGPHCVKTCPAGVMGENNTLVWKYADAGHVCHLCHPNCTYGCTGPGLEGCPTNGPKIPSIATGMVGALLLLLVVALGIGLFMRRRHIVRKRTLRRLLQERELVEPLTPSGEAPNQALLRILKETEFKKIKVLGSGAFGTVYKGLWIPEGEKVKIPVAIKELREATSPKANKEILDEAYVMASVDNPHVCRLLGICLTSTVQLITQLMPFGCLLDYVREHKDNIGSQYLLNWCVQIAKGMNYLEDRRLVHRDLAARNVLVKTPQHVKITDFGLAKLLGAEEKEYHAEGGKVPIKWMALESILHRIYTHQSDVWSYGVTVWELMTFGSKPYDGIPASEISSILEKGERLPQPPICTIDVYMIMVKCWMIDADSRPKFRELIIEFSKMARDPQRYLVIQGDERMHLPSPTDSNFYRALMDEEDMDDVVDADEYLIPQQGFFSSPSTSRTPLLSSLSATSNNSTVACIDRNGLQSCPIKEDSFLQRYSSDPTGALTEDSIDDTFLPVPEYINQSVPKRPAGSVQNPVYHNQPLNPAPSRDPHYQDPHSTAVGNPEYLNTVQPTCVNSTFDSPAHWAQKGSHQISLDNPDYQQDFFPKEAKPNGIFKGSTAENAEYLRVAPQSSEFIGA
# Calu-1 tumors = assay: Antitumor activity, Calu-1 xenograft in nude mice; assay type: in vivo; conditions: 1 mg/kg/day i.p.
# Text: Antitumor Activity in the Nude Mouse Tumor Xenograft Model. Nude mice and C57 BL-6 black mice (National Cancer Institute, Bethesda, Md.) were maintained in accordance with the Institutional Animal Care and Use Committee (IACUC) procedures and guidelines. v-Src- and oncogenic H-Ras-transformed NIH 3T3, A549, MDA-MB-468 and Calu-1 cells were harvested, resuspended in PBS and injected s.c. into the right and left flank (10×10^6 cells per flank) of 8 week old female nude mice as reported previously (Sun, J. et al. Cancer Res., 1999, 59:4919-4926). Similarly, murine B16-F10 Melanoma cells were injected s.c. into the right and left flank (10^6 cells per flank) of C57 black mice. When tumors reached about 150 mm^3, animals were randomized (five animals per group; two tumors per animal) and dosed i.p. with 0.2 ml once daily. Control animals received DMSO (20%) vehicle whereas treated animals were injected with JSI-124 (1 mg/kg/day) in 20% DMSO in water. The tumor volumes were determined by measuring the length (l) and the width (w) and calculating the volume (V=1w^2/2) as described previously (Sun, J. et al. Cancer Res., 1999, 59:4919-4926). Statistical significance between control and treated animals were evaluated by using Student's t-test. […] Percent surviving mice was determined by monitoring the death of mice until all mice died. […]
# [2] = Tolerability observations in treated mice; assay type: in vivo
# Text: Antitumor Activity in the Nude Mouse Tumor Xenograft Model. Nude mice and C57 BL-6 black mice (National Cancer Institute, Bethesda, Md.) were maintained in accordance with the Institutional Animal Care and Use Committee (IACUC) procedures and guidelines. v-Src- and oncogenic H-Ras-transformed NIH 3T3, A549, MDA-MB-468 and Calu-1 cells were harvested, resuspended in PBS and injected s.c. into the right and left flank (10×10^6 cells per flank) of 8 week old female nude mice as reported previously (Sun, J. et al. Cancer Res., 1999, 59:4919-4926). Similarly, murine B16-F10 Melanoma cells were injected s.c. into the right and left flank (10^6 cells per flank) of C57 black mice. When tumors reached about 150 mm^3, animals were randomized (five animals per group; two tumors per animal) and dosed i.p. with 0.2 ml once daily. […] The tumor volumes were determined by measuring the length (l) and the width (w) and calculating the volume (V=1w^2/2) as described previously (Sun, J. et al. Cancer Res., 1999, 59:4919-4926). Statistical significance between control and treated animals were evaluated by using Student's t-test. For the mouse survival experiments, C57 BL-6 black mice were implanted s.c. with B16-F10 cells (10^5 to 10^6 cells per flank). On day 5 after implantation the mice were randomized (6 animals per group) and treated with either vehicle or JSI-124 (1 mg/Kg/day) for 25 days. Percent surviving mice was determined by monitoring the death of mice until all mice died. Two experiments of 12 animals each (6 control and 6 treated with JSI-124) were carried out. For statistical analysis: for each of the two experiments, mice receiving JSI-124 were compared to those receiving vehicle control with respect to survival using the permutation log rank test as implemented in the statistical software package, ProcStatXact (p-values are two sided and exact).
compound,measurement,setting,value
"CC(C)(O)/C=C/C(=O)[C@](C)(O)[C@H]1[C@H](O)C[C@@]2(C)[C@@H]3CC=C4[C@@H](C=C(O)C(=O)C4(C)C)[C@]3(C)C(=O)C[C@]12C [JSI-124, cucurbitacin I]",pRLSRE (SRE-dependent) luciferase reporter,[1],without affecting
same,EGF-stimulated EGFR tyrosine phosphorylation,EGFR,inhibited only minimally
same,effect on growth of Calu-1 tumors,Calu-1 tumors,little effect
same,"effects on body weight, activity or food intake of mice",[2]; 1 mg/kg/day and 0.5 mg/kg/day i.p.,"no effects on body weight, activity or food intake"
same,edema at the local site of drug injection (peritoneal cavity),[2]; 1 mg/kg/day i.p.,caused edema
